Reference: patent US20240425630A1, “POLYMER DISPERSION COMPOSITION” (Dow Global Technologies LLC, priority 2021, published 2024)
Read-outs that look alike come from different tables or passages of the source.

What was measured:
[1] = cited from earlier work
[2] = Surfactant pKaH by acid-base titration
Text: Surfactant pKaH values were either collected from literature sources or measured according to the method described herein. The surfactant (1 g) was mixed with deionized water (60 g). Next, preparation steps were taken to convert all of the surfactants to their respective salt forms. Surfactants which are already in fully neutralized salt form (e.g., Geropon CG 3S, Geropon LG 3S, and Aminosyl SLG) were titrated “as is” (i.e., as received from the supplier). Surfactants in acid form were mixed with enough aqueous 0.5 M KOH (potassium hydroxide) to increase the solution pH to a pH of 10. Sodium lauroyl lactylate (Capmul S12L, 1 g) was mixed with 1.4 g TERGITOL™15-S-40 (70%), followed by enough aqueous 0.5 M KOH (potassium hydroxide) to increase the solution pH to a pH of 10. After the respective preparation steps above, the surfactant solutions were titrated with 0.5 M HCl to pH 2 while recording the pH and the amount of 0.5 M HCl added using a titrator, Mettler Toledo T70.

[3] = literature data (footnotes of Table II)

| Molecule | pKaH [1, 3] | further results |
| --- | --- | --- |
| CCCCCCCCCCCC(=O)O [Lauric acid (C12), Lauric acid] | 7.5 |  |
| CCCCCCCCCCCCCCCC(=O)O [Palmitic acid (C16), Palmitic acid] | 8.6-8.8 |  |
| CCCCCCCC(=O)O [n-octanoic acid] | 6.3-6.5 |  |
| CCCCCCCCCCCCCC(=O)O [Myristic acid (C14), Myristic acid] | 8.1-8.2 |  |
| CCCCCCCCCCCC(=O)OC(C)C(=O)OC(C)C(=O)[O-].[Na+] (stereo not shown) [Sodium lauroyl lactylate] |  | pKaH ([2]; titrated with 0.5 M HCl, pH at mid-point to the equivalence point): 5.25 |
| CCCCCCCCCC(=O)O [Capric acid (C10), Capric acid] | 7.1-7.3 |  |
| sodium dodecylbenzenesulfonate |  | pKaH ([1]; stated in the discussion, no source given): less than 2.6 |
| CCCCCCCCCCCCCCCCCC(=O)O [Stearic acid (C18), Stearic acid] | 10.15 |  |
| CCCCCCCCCCCC(=O)N(C)CC(=O)O [N-Lauroyl sarcosine] |  | pKaH [2]: 5.3 |
| CCCCCCCC/C=C\CCCCCCCC(=O)O [Oleic acid (C18:1 cis-9), Oleic acid] | 9.85 |  |
